Patent US12377100B2 (GILEAD SCIENCES, INC., priority 2015, dated 2025)

What was measured:
Assay type in all cases: cell-based
Details in all cases: human PBMCs, 24 hours incubation
[1] = test system: IL12p40; experiment: PBMC cytokine profiling assay, IL12-p40 induction
Description: (§1) Certain compounds disclosed herein we tested according to the procedure described below. Additionally, certain reference compounds were prepared and tested along with the compounds of the present disclosure.
(§2) Compounds were dissolved and stored in DMSO (Sigma-Aldrich, St. Louis, MO) at 10 mM concentration.
(§3) Cryopreserved human PBMCs isolated from healthy donors were purchased from StemCell Technologies (Vancouver, Canada). Cell culture medium used was RPMI with L-Glutamine (Mediatech, Manassas, VA) supplemented with 10% fetal bovine serum (Hyclone, GE Healthcare, Logan, UT) and Penicillin-Streptomycin (Mediatech). Human TNFα, IL12p40, and IFNα2a 384-well Assay capture plates, standards, buffers and processing reagents were obtained from MesoScale Discovery Technologies (MSD; Rockville, MD).
(§4) Cryopreserved human PBMCs (1×10e8 cells/ml) were thawed at 37° C. and resuspended in 25 mL warm cell culture medium. The cells were pelleted at 200×g (Beckman Avanti J-E) for 5 min and resuspended in 20 mL of fresh culture media. Cells were counted using a Cellometer (Nexcelcom Bioscience), adjusted to 2×10e6 cells, and incubated for 2 hours in an incubator set at 37° C., 5% CO2 to recover from cryopreservation. Compounds were serially diluted in DMSO at half-log steps to generate a 10-point dose range. Using a Bravo pipette equipped with a 384 well head (Agilent), 0.4 μL of compound was transferred to each well of a 384 well black, clear bottom plate (Greiner Bio-One, Germany) containing 30 μL of cell culture medium. Recovered PBMCs were then dispensed into the assay plate at 50 μL per well (100k cells/well) using the MicroFlow multichannel dispenser (Biotek). Final DMSO concentration was 0.5%. DMSO was used as the negative control. The plates were incubated for 24 hours at 37° C. PBMCs in the assay plate were pelleted by centrifugation (Beckman Avanti J-E) at 200×g for 5 min.
(§5) Using a Biomek FX 384 well pipetting station (Beckman), conditioned culture medium (CCM) from the assay plate was transferred to MSD capture plates customized for each cytokine. For IFNα and IL12-p40 detection, 25 μL and 20 μL of CCM were added directly to each capture plate, respectively. For TNFα detection, CCM was diluted 1:9 in fresh culture medium, and 20 μL of diluted CCM was used. Serially diluted calibration standards for each cytokine were used to generate standard curves and establish assay linearity. The plates were sealed and incubated overnight at 4° C. in a plate shaker (Titer Plate) set at 200 rpm. On the following day, antibodies specific for each cytokine were diluted 1:50 in MSD Diluent 100 antibody dilution buffer. Diluted antibodies were added to corresponding capture plates at 10 μL/well, and incubated at RT for 1-2 hrs in the shaker. The plates were washed with PBST buffer (3×, 60 μl/well) using a Biotek Multiflow plate washer. MSD Read Buffer diluted to 2× in deionized water and 35 μL/well was added via Biomek FX instrument. The plates were read immediately in a MSD6000 reader. Data were normalized to positive and negative controls in each assay plate. AC50 values represent compound concentrations at half-maximal effect based on normalized percent activation and calculated by non-linear regression using Pipeline Pilot software (Accelrys, San Diego, CA).

[2] = test system: TNFα; experiment: PBMC cytokine profiling assay, TNFα induction
Description: as §1, §2, §3, §4, §5

[3] = test system: IFNα; experiment: PBMC cytokine profiling assay, IFNα induction
Description: as §1, §2, §3, §4, §5

Row | SMILES | AC50 ([1]; Homo sapiens, PBMC, 24 h) | AC50 ([2]; Homo sapiens, PBMC, 24 h) | AC50 ([3]; Homo sapiens, PBMC, 24 h) | AC50 [1] | AC50 [2] | AC50 [3]
1 | CCCC[C@@H](CO)Nc1nc(N)nc2ccc(C)nc12 [Example 40C, (S)-2-((2-amino-6-methylpyrido[3,2-d]pyrimidin-4-yl)amino)hexan-1-ol] | 0.87 µM | 0.94 µM | 2.4 µM | – | – | –
2 | CCC[C@@H](CO)Nc1nc(N)nc2cc(C)cnc12 [Example 20, (S)-2-((2-amino-7-methylpyrido[3,2-d]pyrimidin-4-yl)amino)pentan-1-ol] | 2.8 µM | 3.2 µM | 5.4 µM | – | – | –
3 | CCC(F)(F)C[C@H](CO)Nc1nc(N)nc2cccnc12 [Example 79, (R)-2-((2-aminopyrido[3,2-d]pyrimidin-4-yl)amino)-4,4-difluorohexan-1-ol] | 11.5 µM | 9.1 µM | > 50 µM | – | – | –
4 | COc1cnc2c(NC(C)(C)C)nc(N)nc2c1 [Example 113, N^4-(tert-butyl)-7-methoxypyrido[3,2-d]pyrimidine-2,4-diamine] | 13.6 µM | 12.5 µM | > 50 µM | – | – | –
5 | CCCC[C@@](C)(Nc1nc(N)nc2cc(F)cnc12)C(C)O (single isomer, unassigned) [Example 94] | – | – | – | 0.7 µM | 1 µM | 2.2 µM
6 | C=C(C)CC[C@H](CO)Nc1nc(N)nc2cccnc12 [Example 77, (R)-2-((2-aminopyrido[3,2-d]pyrimidin-4-yl)amino)-5-methylhex-5-en-1-ol] | 43.6 µM | 43.6 µM | 43.6 µM | – | – | –
7 | CCCC(C)Nc1nc(N)nc2cccnc12 (stereo not drawn) [Example 2B, N^4-(pentan-2-yl)pyrido[3,2-d]pyrimidine-2,4-diamine] | 2.8 µM | 5.4 µM | 4.3 µM | – | – | –
8 | CCCC[C@@H](Nc1nc(N)nc2cccnc12)c1ncc[nH]1 [Example 55, (R)—N^4-(1-(1H-imidazol-2-yl)pentyl)pyrido[3,2-d]pyrimidine-2,4-diamine] | 21.5 µM | 23.9 µM | 28.8 µM | – | – | –
9 | CCCC[C@H](CO)Nc1nc(N)nc2ccc(C)nc12 [Example 39C, (R)-2-((2-amino-6-methylpyrido[3,2-d]pyrimidin-4-yl)amino)hexan-1-ol] | 41.5 µM | > 50 µM | > 50 µM | – | – | –
10 | Nc1nc(N[C@@H](CO)CCCCF)c2ncccc2n1 [Example 74, (R)-2-((2-aminopyrido[3,2-d]pyrimidin-4-yl)amino)-6-fluorohexan-1-ol] | 9.6 µM | 9.1 µM | > 50 µM | – | – | –
11 | CCC[C@H](CO)Nc1nc(N)nc2ccc(C)nc12 [Example 38C, (R)-2-((2-amino-6-methylpyrido[3,2-d]pyrimidin-4-yl)amino)pentan-1-ol] | > 50 µM | > 50 µM | > 50 µM | – | – | –
12 | CCCC[C@H](CO)Nc1nc(N)nc2cc(OC)cnc12 [Example 105, (R)-2-((2-amino-7-methoxypyrido[3,2-d]pyrimidin-4-yl)amino)hexan-1-ol] | 3.4 µM | 3.5 µM | > 50 µM | – | – | –
13 | CCCC[C@H](CO)Nc1nc(N)nc2c(C)ccnc12 [Example 57, (R)-2-((2-amino-8-methylpyrido[3,2-d]pyrimidin-4-yl)amino)hexan-1-ol] | 9.7 µM | 11 µM | > 50 µM | – | – | –
14 | CCCC[C@H](CN)Nc1nc(N)nc2cccnc12 [Example 50, (R)—N^4-(1-aminohexan-2-yl)pyrido[3,2-d]pyrimidine-2,4-diamine] | 23.1 µM | 26.9 µM | > 50 µM | – | – | –
15 | CCCCNc1nc(N)nc2ccc(C(F)(F)F)nc12 [Example 32, N^4-butyl-6-(trifluoromethyl)pyrido[3,2-d]pyrimidine-2,4-diamine] | > 50 µM | > 50 µM | > 50 µM | – | – | –
16 | CCCCNc1nc(N)nc2cc(Cl)cnc12 [Example 41, N^4-butyl-7-chloropyrido[3,2-d]pyrimidine-2,4-diamine] | 9.1 µM | 11 µM | 13 µM | – | – | –

Row | SMILES | AC50 ([1]; Homo sapiens, PBMC, 24 h) | AC50 ([2]; Homo sapiens, PBMC, 24 h) | AC50 ([3]; Homo sapiens, PBMC, 24 h) | AC50 [1] | AC50 [2] | AC50 [3]
17 | CCCC[C@](C)(CO)Nc1nc(N)nc2cc(F)cnc12 [Example 98, (R)-2-((2-amino-7-fluoropyrido[3,2-d]pyrimidin-4-yl)amino)-2-methylhexan-1-ol] | 0.23 µM | 0.24 µM | 134 µM | – | – | –
18 | CSCC[C@@H](CO)Nc1nc(N)nc2cccnc12 [Example 10, (S)-2-((2-aminopyrido[3,2-d]pyrimidin-4-yl)amino)-4-(methylthio)butan-1-ol] | 23.8 µM | 29.2 µM | > 50 µM | – | – | –
19 | CC(C)(O)CC[C@H](CO)Nc1nc(N)nc2cccnc12 [Example 110] | 32.6 µM | 32.6 µM | 32.6 µM | – | – | –
20 | CCCCC(Nc1nc(N)nc2cccnc12)C(C)O (stereo not drawn) [Example 104, 3-((2-aminopyrido[3,2-d]pyrimidin-4-yl)amino)heptan-2-ol] | – | – | – | 1.9 µM | 2.1 µM | 4.2 µM
21 | CCCCC[C@H](CO)Nc1nc(N)nc2cccnc12 [Example 75, (R)-2-((2-aminopyrido[3,2-d]pyrimidin-4-yl)amino)heptan-1-ol] | 3.3 µM | 4 µM | 20.3 µM | – | – | –
22 | CCC[C@](C)(CO)Nc1nc(N)nc2cccnc12 [Example 80, (R)-2-((2-aminopyrido[3,2-d]pyrimidin-4-yl)amino)-2-methylpentan-1-ol] | 2.4 µM | 2.7 µM | > 50 µM | – | – | –
23 | CC(F)CC[C@H](CO)Nc1nc(N)nc2cccnc12 (stereo partly drawn) [Example 73, (2R)-2-((2-aminopyrido[3,2-d]pyrimidin-4-yl)amino)-5-fluorohexan-1-ol] | 1.3 µM | 1.3 µM | > 50 µM | – | – | –
24 | CCC[C@H](Nc1nc(N)nc2cccnc12)C(=O)NCCN [Example 36, (S)—N-(2-aminoethyl)-2-((2-aminopyrido[3,2-d]pyrimidin-4-yl)amino)pentanamide] | 10.8 µM | 21.5 µM | > 50 µM | – | – | –
25 | C=CCC[C@H](CO)Nc1nc(N)nc2cccnc12 [Example 72, (R)-2-((2-aminopyrido[3,2-d]pyrimidin-4-yl)amino)hex-5-en-1-ol] | 7 µM | 7.2 µM | > 50 µM | – | – | –
26 | CCC[C@@H](CO)Nc1nc(N)nc2cc(F)c(C)nc12 [Example 67, (S)-2-((2-amino-7-fluoro-6-methylpyrido[3,2-d]pyrimidin-4-yl)amino)pentan-1-ol] | 3.9 µM | 6.3 µM | 23 µM | – | – | –
27 | CC(C)CC[C@H](CO)Nc1nc(N)nc2cccnc12 [Example 76, (R)-2-((2-aminopyrido[3,2-d]pyrimidin-4-yl)amino)-5-methylhexan-1-ol] | 31.8 µM | 36.9 µM | 36.9 µM | – | – | –
28 | CCC[C@H](Nc1nc(N)nc2cccnc12)C(=O)NCC(C)(C)O [Example 35, (S)-2-((2-aminopyrido[3,2-d]pyrimidin-4-yl)amino)-N-(2-hydroxy-2-methylpropyl)pentanamide] | 22.6 µM | 39.4 µM | > 50 µM | – | – | –
29 | CCCCNc1nc(N)nc2c(C)ccnc12 [Example 25E, N^4-butyl-8-methylpyrido[3,2-d]pyrimidine-2,4-diamine] | 19.7 µM | 20 µM | 12.3 µM | – | – | –
30 | CCCC[C@](C)(CO)Nc1nc(N)nc2cc(N)cnc12 [Example 115, (R)-2-((2,7-diaminopyrido[3,2-d]pyrimidin-4-yl)amino)-2-methylhexan-1-ol] | 0.027 µM | 0.024 µM | 9 µM | – | – | –
31 | CCC[C@@H](CO)Nc1nc(N)nc2c(Cl)cc(C)nc12 [Example 6B, (S)-2-((2-amino-8-chloro-6-methylpyrido[3,2-d]pyrimidin-4-yl)amino)pentan-1-ol] | > 50 µM | > 50 µM | > 50 µM | – | – | –
32 | CCC[C@H](Nc1nc(N)nc2cccnc12)C(=O)NCCO [Example 34, (S)-2-((2-aminopyrido[3,2-d]pyrimidin-4-yl)amino)-N-(2-hydroxyethyl)pentanamide] | 10.9 µM | 12.2 µM | > 50 µM | – | – | –
